Measured values: patent publication US7960397B2, “6,9-disubstituted purine derivatives and their use as cosmetics and cosmetic compositions” (Institute of Experimental Botany, Academy of Sciences of …, priority 2007, dated 2011)

Columns and labels:
[1] = test system: Amaranthus caudatus cotyledon/hypocotyl explants; experiment: Amaranthus bioassay (betacyanin content); set-up: species or system Amaranthus caudatus var. atropurpurea; details: for concentration with highest activity: betacyanin content after 48 h incubation, tested 10^−8 M to 10^−4 M; for Activity (%) [10^−5 mol · l^−1 BAP = 100%]: betacyanin content at the concentration with highest activity, 10^−5 M BAP = 100%
Description: Testing of novel compounds for typical cytokinin activity in Amaranthus bioassay. A standard Amaranthus bioassay was performed with several modifications. The seeds of Amaranthus caudatus var. atropurpurea were surface-sterilized in 10% (w/v) N-chlorobenzenesulfonamide for 10 min and washed 5 times with deionized water. They were placed in 14 cm Petri dishes containing paper tissues saturated with deionized water. After 72 h of cultivation at 25° C. in darkness, the roots of the seedlings were cut off. The explants, consisting of two cotyledons and hypocotyls, were placed in 5 cm Petri dishes onto two layers of filter paper soaked with 1 ml of the incubation medium containing 10 mmol of NA2HPO4—KH2PO4, pH 6.8, 5 mmol of tyrosine and the compound to be tested. There were 20 explants per dish. The procedure was carried out under a green safe light in a darkroom. […] The concentration of betacyanin was determined from the absorbencies at 537 nm and 620 nm as follows: DA=A537 nm−A620 nm. […] Relative activity of the compound at this concentration was calculated. The activity obtained for 10^−5 M 6-benzylaminopurine (BAP) was defined as 100%.
(§1) The compounds to be tested were dissolved in dimethylsulfoxide (DMSO) and the solution brought up to 10^−3 M with distilled water.

[2] = test system: human diploid fibroblasts (HCA cells, HCA20, HCA40, HCA60); experiment: Senescent cells (β-galactosidase staining) in culture of human fibroblasts; assay type: cell-based; details: for SENESCENT CELLS (%) HCA20: human fibroblasts passage 20 (HCA20); for SENESCENT CELLS (%) HCA40: human fibroblasts passage 40 (HCA40); for SENESCENT CELLS (%) HCA60: human fibroblasts passage 60 (HCA60)
Description: In this example, human diploid fibroblasts (HCA cells of various passage levels: passage 20—designated HCA20; passage 40—designated HCA40; passage 60—designated HCA60) were stained for β-galactosidase activity. The medium used for the cell cultivation was removed, the cells were washed twice in […], and fixed in 2-3 ml of fixing solution comprised of a 2% formaldehyde and 0.2% glutaraldehyde in PBS. The cells were incubated at room temperature for 5 minutes, and then washed twice with PBS. The cells were subsequently incubated at 37° C.

excised wheat leaf tips = experiment: Antisenescence test, retention of chlorophyll in excised wheat leaf tips; set-up: species or system Triticum aestivum cv. Hereward; details: for activity (%) [10^−4 mol · l^−1 BAP = 100%]: retention of chlorophyll in excised wheat leaf tips at the concentration with highest activity, 10 replicate determinations; for concentration with highest activity: retention of chlorophyll in excised wheat leaf tips, tested range 10^−8 M to 10^−4 M, 96 h in the dark at 25° C.
Description: Testing of antisenescence properties of novel cytokinin compounds on wheat leaf segments. Seeds of winter wheat, Triticum aestivum cv. Hereward, were washed under running water for 24 hours and then sown on vermiculite soaked with the Knop's solution. They were placed in the grow chamber at 25° C. with a 16 h-8 h light period at 50 mmol.m^−2.s^−1. After 7 days, the first leaf was fully developed and the second leaf had started to grow. A 35 mm long tip section of the first leaf, was removed from each of 5 seedlings and trimmed slightly to a combined weight of 100 mg. The basal ends of the five leaf tips were placed in the wells of a microtiter polystyrene plate containing […] of the solution of the tested compound each. The entire plate was inserted into a plastic box lined with paper tissues soaked with distilled water to prevent leaf sections from drying out. After 96 h incubation in the dark at 25° C., the leaves were removed and chlorophyll was extracted by heating at 80° C. for 10 min in 5 ml of 80% ethanol (v/v). The sample volume was then restored to 5 ml by the addition of 80% ethanol (v/v). The absorbance of the extract was recorded at 665 nm. In addition, chlorophyll extracts from fresh leaves and leaf tips incubated in deionized water were measured. […] Relative activity of the compound at this concentration was calculated (Table 7). The activity obtained for 10^−4 M 6-benzylaminopurine (BAP) was defined as 100%. The values shown are means of five replicates and the whole experiment was repeated twice.
as §1

[3] = test system: cytokinin-dependent tobacco callus Nicotiana tabacum L. cv. Wisconsin 38; experiment: Cytokinin activity in tobacco callus bioassay; assay type: cell-based; details: for concentration with highest activity: growth of tobacco callus, four weeks of cultivation, tested 10^−8 M to 10^−4 M; for Activity (%) [10^−5 mol · l^−1 BAP = 100%]: increase of fresh callus weight at the concentration with highest activity, 10^−5 M BAP = 100%
Description: Estimation of cytokinin biological activity of novel compounds in callus bioassay. Cytokinin-dependent tobacco callus Nicotiana tabacum L. cv. […] Subcultivation was carried out every three weeks. Fourteen days before the bioassay, the callus tissue was transferred to the media without the compound tested. The biological activity was determined from the increase of the fresh callus weight after four weeks of cultivation. Five replicates were prepared for each concentration of the compound tested and the entire test was repeated twice. […] The relative activity of the compound at this concentration was calculated (Table 8). […] The compounds to be tested were dissolved in dimethylsulfoxide (DMSO) and the solution brought up to 10^−3 M with distilled water. This stock solution was further diluted with the respective media used for the biotest to a concentration ranging from 10^−8 M to 10^−4 M.

Compound	concentration with highest activity [1]	Activity (%) [10^−5 mol · l^−1 BAP = 100%] [1] [%]	SENESCENT CELLS (%) HCA20 [2] [%]	SENESCENT CELLS (%) HCA40 [2] [%]	SENESCENT CELLS (%) HCA60 [2] [%]	activity (%) [10^−4 mol · l^−1 BAP = 100%] (excised wheat leaf tips) [%]	concentration with highest activity (excised wheat leaf tips)	concentration with highest activity [3]	Activity (%) [10^−5 mol · l^−1 BAP = 100%] [3] [%]
COc1cccc(CNc2ncnc3c2ncn3C2CCCCO2)c1O (stereo not drawn)	10^−4 mol · l^−1	32	3	3	25	50	10^−4 mol · l^−1	10^−6 mol · l^−1	11
Cc1cccc(CNc2ncnc3c2ncn3C2CCCCO2)c1O (stereo not drawn)	10^−4 mol · l^−1	68.8	4	6	30	16.4	10^−4 mol · l^−1	10^−5 mol · l^−1	9.2
COc1ccc(CNc2ncnc3c2ncn3C2CCCCO2)c(O)c1 (stereo not drawn)	10^−4 mol · l^−1	37	3	4	27	35	10^−4 mol · l^−1	10^−6 mol · l^−1	43
Cc1ccc(O)c(CNc2ncnc3c2ncn3C2CCCCO2)c1 (stereo not drawn)	10^−4 mol · l^−1	68.4	5	4	30	82	10^−4 mol · l^−1	10^−4 mol · l^−1	121
Oc1ccoc1CNc1ncnc2c1ncn2C1CCCCO1 (stereo not drawn)	10^−4 mol · l^−1	65	4	4	18	45	10^−4 mol · l^−1	10^−6 mol · l^−1	52
COc1cc(O)cc(OC)c1Nc1ncnc2c1ncn2C1CCCCO1 (stereo not drawn)	10^−4 mol · l^−1	8	4	6	24	14	10^−4 mol · l^−1	10^−5 mol · l^−1	15
CC(CO)CCNc1ncnc2c1ncn2C1CCCO1 (stereo not drawn)	10^−4 mol · l^−1	80	5	2	25	91	10^−4 mol · l^−1	10^−5 mol · l^−1	105
COc1cc(Nc2ncnc3c2ncn3C2CCCCO2)cc(OC)c1O (stereo not drawn)	10^−4 mol · l^−1	10	4	5	22	28	10^−4 mol · l^−1	10^−5 mol · l^−1	19
COc1cc(CNc2ncnc3c2ncn3C2CCCCO2)cc(OC)c1O (stereo not drawn)	10^−4 mol · l^−1	8	4	5	17	42	10^−4 mol · l^−1	10^−5 mol · l^−1	39
